Among the data in patent US10118902B2 (Sanford Burnham Prebys Medical Discovery Institute, priority 2014, dated 2018) are EC50 values, retold here.

Bounds are passed on as bounds.

The test concerns the target neurotensin receptor 1 (NTR1) (Homo sapiens (Human), UniProt P30989). Briefly: NTR1 dose response, high-content imaging beta-arrestin-GFP assay in NTR1-U2OS cells. It is filed as cell-based. Particulars: read-out: EC50.

Sequence of neurotensin receptor 1 (NTR1) (P30989 whole entry, species assumed): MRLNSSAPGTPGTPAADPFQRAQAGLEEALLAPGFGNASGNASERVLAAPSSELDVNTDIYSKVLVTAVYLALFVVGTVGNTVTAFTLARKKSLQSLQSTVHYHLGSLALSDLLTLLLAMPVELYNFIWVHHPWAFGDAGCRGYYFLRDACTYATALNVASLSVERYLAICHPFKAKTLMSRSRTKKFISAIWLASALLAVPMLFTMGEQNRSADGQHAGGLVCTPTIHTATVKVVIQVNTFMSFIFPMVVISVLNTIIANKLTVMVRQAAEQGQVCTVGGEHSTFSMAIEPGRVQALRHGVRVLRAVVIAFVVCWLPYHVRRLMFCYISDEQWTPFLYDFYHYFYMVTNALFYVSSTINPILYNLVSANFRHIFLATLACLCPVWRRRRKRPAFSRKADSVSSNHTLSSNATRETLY

The EC50 is the concentration needed to bring the measured effect to its halfway point. In the case of `CCCN(C)c1ccc2nc(C3CCC3)nc(N3CCC(c4ccccc4OC)CC3)c2c1` [Example 45, {2-cyclobutyl-4-[4-(2-methoxy-phenyl)-piperidin-1-yl]-quinazolin-6-yl}-methyl-propyl-amine], the concentration giving a half-maximal response (EC50) is greater than 10 µM.

Consider `CN(CCN1CCOCC1)c1ccc2nc(C3CC3)nc(N3CCC(c4ccccc4N4CCC4)CC3)c2c1` [Example 8, {4-[4-(2-azetidin-1-yl-phenyl)-piperidin-1-yl]-2-cyclopropyl-quinazolin-6-yl}-methyl-(2-morpholin-4-yl-ethyl)-amine], for which the EC50 lay in the range of 0.5 to 2 µM.

Regarding `COc1ccccc1C1CCN(c2nc(C3(F)CCC3)nc3cnc(N4CC[C@H](O)C4)cc23)CC1` [Example 200, 1-{2-(1-Fluoro-cyclobutyl)-4-[4-(2-methoxy-phenyl)-piperidin-1-yl]-pyrido[3,4-d]pyrimidin-6-yl}-pyrrolidin-3-ol], the EC50 lay in the range of 2 to 10 µM.

On to `CN(C)c1ccccc1C1CCN(c2nc(C3CC3)nc3cc(Cl)c(N(C)CCO)cc23)CC1` [Example 118, 2-({7-chloro-2-cyclopropyl-4-[4-(2-dimethylamino-phenyl)-piperidin-1-yl]-quinazolin-6-yl}-methyl-amino)-ethanol], for which the concentration for a half-maximal effect (EC50) is 2 to 10 µM.

`COc1ccsc1C1CCN(c2nc(C3CC3)nc3ccc(N(C)CCO)cc23)CC1` [Example 190, 2-({2-Cyclopropyl-4-[4-(3-methoxy-thiophen-2-yl)-piperidin-1-yl]-quinazolin-6-yl}-methyl-amino)-ethanol]: the EC50 lay within 2 to 10 µM.

For `CN(C)c1ccc2nc(C3CC3)nc(N3CCN(c4ccccc4N4CCC4)CC3)c2c1` [Example 1, {4-[4-(2-azetidin-1-yl-phenyl)-piperazin-1-yl]-2-cyclopropyl-quinazolin-6-yl}-dimethyl-amine], the concentration giving a half-maximal response (EC50) is 0.5 to 2 µM.

`CN(CCN1CCOCC1)c1ccc2nc(C3CC3)nc(N3CCN(C4CCCC4O)CC3)c2c1` (centres unmarked) [Example 142, 2-(4-{2-cyclopropyl-6-[methyl-(2-morpholin-4-yl-ethyl)-amino]-quinazolin-4-yl}-piperazin-1-yl)-cyclopentanol]: the concentration giving a half-maximal response (EC50) is greater than 10 µM.

For the compound `CN(CCO)c1ccc2nc(C3CC3)nc(N3CCC(c4ccccc4N4CCC4)CC3)c2c1` [Example 6, 2-({4-[4-(2-azetidin-1-yl-phenyl)-piperidin-1-yl]-2-cyclopropyl-quinazolin-6-yl}-methyl-amino)-ethanol], the half-maximal effective concentration (EC50) is 0.5 to 2 µM.

As to `CCCN(C)c1ccc2nc(C3CC3)nc(NC3CCN(c4ccccc4OC)C3)c2c1` (centres unmarked) [Example 155, 2-cyclopropyl-N4-(1-(2-methoxyphenyl)pyrrolidin-3-yl)-N6-methyl-N6-propylquinazoline-4,6-diamine], the concentration for a half-maximal effect (EC50) was greater than 10 µM.

On to `COc1ccccc1C1CCN(c2nc(C3CC3)nc3cccc(N(C)CCO)c23)CC1` [Example 168, 2-({2-Cyclopropyl-4-[4-(2-methoxy-phenyl)-piperidin-1-yl]-quinazolin-5-yl}-methyl-amino)-ethanol], for which the half-maximal effective concentration (EC50) is greater than 10 µM.

With `COc1cc(F)ccc1C1CCN(c2nc(C3CC3)nc3cc(F)c(N(C)CCO)cc23)CC1` [Example 110, 2-({2-cyclopropyl-7-fluoro-4-[4-(4-fluoro-2-methoxy-phenyl)-piperidin-1-yl]-quinazolin-6-yl}-methyl-amino)-ethanol], the half-maximal effective concentration (EC50) is 0.5 to 2 µM.

Turning to `CCCN(C)c1ccc2nc(C3CC3)nc(N3CCN(C4CCCC4OC)CC3)c2c1` (centres unmarked) [Example 185, 2-cyclopropyl-4-(4-(2-methoxycyclopentyl)piperazin-1-yl)-N-methyl-N-propylquinazolin-6-amine], the EC50 is greater than 10 µM.

Turning to `CCCN(C)c1ccc2c(N3CCC(c4ccccc4OC)CC3)nc(C3CC3)nc2c1` [Example 170, {2-Cyclopropyl-4-[4-(2-methoxy-phenyl)-piperidin-1-yl]-quinazolin-7-yl}-methyl-propyl-amine], the EC50 lay within 2 to 10 µM.

`COc1cc(I)ccc1C1CCN(c2nc(C3(F)CC3)nc3ccc(N(C)CCO)cc23)CC1` [Example 218]: the EC50 is greater than 10 µM.

`CCN(C)c1ccc2nc(C3CC3)nc(N3CCC(c4ccccc4N4CCC4)CC3)c2c1` [Example 4, {4-[4-(2-azetidin-1-yl-phenyl)-piperidin-1-yl]-2-cyclopropyl-quinazolin-6-yl}-ethyl-methyl-amine]: the EC50 is greater than 10 µM.

In the case of `COc1ccccc1C1CCN(c2nc(-c3ccccc3)nc3ccc(N(C)CCO)cc23)CC1` [Example 144, 2-({4-[4-(2-methoxy-phenyl)-piperidin-1-yl]-2-phenyl-quinazolin-6-yl}-methyl-amino)-ethanol], the 50% effective concentration (EC50) was 2 to 10 µM.

As to `COc1ccccc1C1CCN(c2nc(-c3ccccc3)nc3ccc(N(C)C)cc23)CC1` [Example 143], the concentration for a half-maximal effect (EC50) was greater than 10 µM.

`CN(CCO)c1ccc2nc(C3(F)CC3)nc(N3CCC(c4ccccc4OCCF)CC3)c2c1` [Example 225, 2-[(2-(1-Fluoro-cyclopropyl)-4-{4-[2-(2-fluoro-ethoxy)-phenyl]-piperidin-1-yl}-quinazolin-6-yl)-methyl-amino]-ethanol]: the concentration for a half-maximal effect (EC50) was 0.5 to 2 µM.

Turning to `CN(C)c1ccccc1C1CCN(c2nc(C3(C)CC3)nc3ccc(N(C)CCN4CCCC4)cc23)CC1` [Example 29, [4-[4-(2-dimethylamino-phenyl)-piperidin-1-yl]-2-(1-methyl-cyclopropyl)-quinazolin-6-yl]-methyl-(2-pyrrolidin-1-yl-ethyl)-amine], the concentration giving a half-maximal response (EC50) was greater than 10 µM.

In the case of `COc1ccccc1C1CCN(c2nc(C3(C(F)(F)F)CCCC3)nc3ccc(N(C)CCO)cc23)CC1` [Example 55, 2-{[4-[4-(2-methoxy-phenyl)-piperidin-1-yl]-2-(1-trifluoromethyl-cyclopentyl)-quinazolin-6-yl]-methyl-amino}-ethanol], the EC50 lay within 2 to 10 µM.
